Laboratory results published in publication PMC8296985, “A Covalent Calmodulin Inhibitor as a Tool to Study Cellular Mechanisms of K-Ras-Driven Stemness” (Frontiers in Cell and Developmental Biology, 2021).
Values joined by “and” are separate entries in the source; they are usually repeats but may differ in a detail not shown here. Equal values may be shown once.

Assays:
Type in all cases: cell-based
HeLa cells = assay: Centrosome number / multipolar phenotype in synchronized HeLa cells expressing mCherry-CaM; conditions: 2 h; calmidazolium 20 μM, 1 50 μM, with MG132 10 μM
Method: To evaluate the effect of compounds on centrosome numbers during mitosis, HeLa cells were seeded in 6-well plates onto sterile coverslips and cotransfected with 0.5 μg of pmCherry-CaM and 1.5 μg pEGFP-Centrin1 plasmids using 4 μl of jetPRIME. Twenty-four hours after the transfection, cells were synchronized with 60 ng/ml of nocodazole for 16 h. After the removal of nocodazole, the cells were treated with the […] MG132 (10 μM) to block the cells in metaphase and either calmidazolium (20 μM), 1 (50 μM), or DMSO (0.5%) for 2 h. Cells were then fixed with 4% paraformaldehyde in PBS for 10 min at ambient temperature. After washing with PBS-Tween 0.05%, DNA was stained with a 1 μg/ml solution of DAPI diluted in PBS for 10 min. Coverslips were mounted on glass slides using Vectashield, and images were captured on a spinning disk confocal microscope. Images were analyzed with the ImageJ software, and the number of transfected mitotic cells with multipolar and normal bipolar phenotypes was counted (between 35 and 70 cells per test condition). The percentage multipolar vs. bipolar cells was computed to generate the plot using the Prism software.

[1] = test system: HRAS mutant cells (Hs 578T, T24); assay: 2D viability assay (alamarBlue), DSS3; conditions: relative to OphA; listed as Calmirasone1
Method: (§1) To quantitatively profile the drug sensitivity with a more robust parameter than the IC50 or EC50 values, the drug sensitivity score (DSS) analysis was employed. DSS values are essentially normalized area under the curve (AUC) measures of dose-response inhibition data ([Yadav et al., 2014]). Drug response data files (in Excel) ready for online analysis were prepared according to the example file obtained from the DSS pipeline website, called Breeze^1 ([Potdar et al., 2020]). Either raw fluorescence intensity measurements or normalized % inhibition data (for BRET assay analysis) were uploaded.
DSS3 was employed to emphasize drugs that obtain their response area over a relatively wide dose window, as compared to drugs that show increased response only at the higher end of the concentration range. After logistic fitting of the dose-response inhibition data, the area under the curve (AUC) was determined as the exact solution. A 10% minimal activity threshold (t) was set. The maximum (Cmax) and minimum (Cmin) concentrations were used for screening of the inhibitors, with Cmax = x2 and x1 concentration with minimal activity t. […]

[2] = test system: NCI-H358, MIA PaCa-2, MDA-MB-231 and A375 3D spheroids; assay: 3D spheroid growth benchmarking, DSS3, alamarBlue
Method: 3D spheroid formation assays were performed in 96-well low-attachment, suspension culture plates (cat. no. 655185, Cellstar, Greiner Bio-One) under serum-free condition. About 1,000 (MDA-MB-231, NCI-H358, and MIA PaCa-2) or 2,500 (Hs 578T) cells per well were seeded in 50 μl of either an RPMI medium (cat. no. 52400-025, Gibco, Thermo Fisher Scientific) (MDA-MB-231, A375, and NCI-H358) or DMEM (cat. no. 41965-039, Gibco, Thermo Fisher Scientific) (Hs 578T and MIA PaCa-2), containing 0.5% MethoCult (cat. no. SF H4636, Stemcell technologies), 1x B27 (cat. no. 17504044, Gibco, Thermo Fisher Scientific), 25 ng/ml EGF (cat. no. E9644, Sigma-Aldrich), and 25 ng/ml FGF (cat. no. RP-8628, Thermo Fisher Scientific). Cells were cultured for 3 days and then treated with compounds or vehicle control (DMSO 0.1% v/v in growth medium) for another 3 days. The cells were supplemented with a fresh growth medium on the third day together with the drug treatment. For knockdown experiments, cells were seeded in 12-well plates and treated with either 50 nM scrambled siRNA (cat. no. 1022076, QIAGEN) or indicated concentrations of siRNAs. Next day, cells were collected by trypsinization and re-plated into 96-well plates for 3D spheroid suspension culture.
Spheroid formation efficiency was analyzed by an alamarBlue assay reagent (cat. no. DAL1100, Thermo Fisher Scientific). A 10% final volume of the alamarBlue reagent was added to each well of the plate and incubated for 4 h at 37°C. Then the fluorescence intensity was measured using the FLUOstar OPTIMA plate reader (BMG Labtech, Germany) with an excitation wavelength of 560 ± 5 nm and an emission wavelength of 590 ± 5 nm.
as §1
DSS3 was employed to emphasize drugs that obtain their response area over a relatively wide dose window, as compared to drugs that show increased response only at the higher end of the concentration range. After logistic fitting of the dose-response inhibition data, the area under the curve (AUC) was determined as the exact solution. A 10% minimal activity threshold (t) was set. The maximum (Cmax) and minimum (Cmin) concentrations were used for screening of the inhibitors, with Cmax = x2 and x1 concentration with minimal activity t.

CC(C)c1ccc2cc(C(F)(F)F)c(=O)c3c(N4CCCCC4)c(C=O)c(c1)c23 [Compound 1]
multipolar phenotype (multiple mCherry-CaM-positive centrosomes) (HeLa cells): significantly pronounced
lower unspecific toxic effect on HRAS mutant cells as compared to OphA [1]: > 40 fold and 40–260 fold
DSS3 potency relative to K-RasG12C inhibitor AMG-510 in 3D spheroid assays ([2]; relative to AMG-510): ~50%
effect on 3D spheroid growth ([2]; spheroids grown 72 h then treated 72 h): visibly lower activity
